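Briefly, cells in 96-well plates were exposed to five compound concentrations for 48 h, and endpoints were estimated by linear interpolation. GI50: concentration for 50% inhibition of growth.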 The source made the active and inactive calls. Rule as the data show it: active = GI50 up to about 1.1 µM and inactive = higher.
Tests used:
Assay in all cases: DTP human tumour cell line panel, 48 h
MCF7 = tested on: MCF7
OVCAR-8 = tested on: OVCAR-8
HOP-62 = tested on: HOP-62
SF-539 = tested on: SF-539
OVCAR-5 = tested on: OVCAR-5
A549 = tested on: A549
SR = tested on: SR
T47D = tested on: T47D
MOLT-4 = tested on: MOLT-4
HT-29 = tested on: HT-29
SK-MEL-28 = tested on: SK-MEL-28
OVCAR-3 = tested on: OVCAR-3
NCI-H522 = tested on: NCI-H522
SK-MEL-5 = tested on: SK-MEL-5
CAKI-1 = tested on: CAKI-1
786-0 = tested on: 786-0
HOP-92 = tested on: HOP-92
HCC 2998 = tested on: HCC 2998
SF-295 = tested on: SF-295
HCT-15 = tested on: HCT-15
EKVX = tested on: EKVX
MDA-N = tested on: MDA-N
HCT-116 = tested on: HCT-116
SK-OV-3 = tested on: SK-OV-3
OVCAR-4 = tested on: OVCAR-4
U-251 = tested on: U-251
SW-620 = tested on: SW-620
K562 = tested on: K562
BT-549 = tested on: BT-549
IGROV-1 = tested on: IGROV-1
MDA-MB-435 = tested on: MDA-MB-435
COLO 205 = tested on: COLO 205
UACC-257 = tested on: UACC-257
UO-31 = tested on: UO-31
NCI/ADR-RES = tested on: NCI/ADR-RES
PC-3 = tested on: PC-3
CCRF-CEM = tested on: CCRF-CEM
DU-145 = tested on: DU-145
M14 = tested on: M14
HL-60 = tested on: HL-60
SF-268 = tested on: SF-268
NCI-H460 = tested on: NCI-H460
SNB-75 = tested on: SNB-75
NCI-H23 = tested on: NCI-H23
Malme-3M = tested on: Malme-3M
Hs-578T = tested on: Hs-578T
LOX IMVI = tested on: LOX IMVI
MDA-MB-231 = tested on: MDA-MB-231
ACHN = tested on: ACHN
UACC-62 = tested on: UACC-62
KM12 = tested on: KM12
RPMI-8226 = tested on: RPMI-8226
SNB-19 = tested on: SNB-19
TK-10 = tested on: TK-10
SN12C = tested on: SN12C

For `C/C=C1/CN2CCC3(O)c4ccccc4N4C=C(C(=O)OC)C1CC2C43O` (stereo not given), the GI50 (MCF7) was > 100 µM (inactive), the GI50 (OVCAR-8) was > 100 µM (inactive) and the GI50 (HOP-62) was > 100 µM (inactive). For the same molecule, the GI50 (SF-539) was > 100 µM (inactive), the GI50 (OVCAR-5) was > 100 µM (inactive) and the GI50 (A549) was > 100 µM (inactive). The GI50 (SR) was > 100 µM (inactive), the GI50 (T47D) was > 100 µM (inactive) and the GI50 (MOLT-4) was 84.1 µM (inactive). The GI50 (HT-29) was > 100 µM (inactive), the GI50 (SK-MEL-28) was > 100 µM (inactive) and the GI50 (OVCAR-3) was > 100 µM (inactive). For the same molecule, the GI50 (NCI-H522) was > 100 µM (inactive), the GI50 (SK-MEL-5) was > 100 µM (inactive) and the GI50 (CAKI-1) was > 100 µM (inactive). For the same molecule, the GI50 (786-0) was > 100 µM (inactive), the GI50 (HOP-92) was > 100 µM (inactive) and the GI50 (HCC 2998) was > 100 µM (inactive). For the same molecule, the GI50 (SF-295) was > 100 µM (inactive), the GI50 (HCT-15) was over 100 µM and the GI50 (EKVX) was > 100 µM (inactive). For the same molecule, the GI50 (MDA-N) was > 100 µM (inactive), the GI50 (HCT-116) was > 100 µM (inactive) and the GI50 (SK-OV-3) was > 100 µM (inactive). For the same molecule, the GI50 (OVCAR-4) was > 100 µM (inactive), the GI50 (U-251) was > 100 µM (inactive) and the GI50 (SW-620) was > 100 µM (inactive). The GI50 (K562) was 81.5 µM (inactive), the GI50 (BT-549) was > 100 µM (inactive) and the GI50 (IGROV-1) was > 100 µM (inactive). The GI50 (MDA-MB-435) was > 100 µM (inactive), the GI50 (COLO 205) was > 100 µM (inactive) and the GI50 (UACC-257) was > 100 µM (inactive). The GI50 (UO-31) was > 100 µM (inactive), the GI50 (NCI/ADR-RES) was > 100 µM (inactive) and the GI50 (PC-3) was > 100 µM (inactive). For the same molecule, the GI50 (CCRF-CEM) was > 100 µM (inactive), the GI50 (DU-145) was > 100 µM (inactive) and the GI50 (M14) was > 100 µM (inactive). For the same molecule, the GI50 (HL-60) was > 100 µM (inactive), the GI50 (SF-268) was > 100 µM (inactive) and the GI50 (NCI-H460) was > 100 µM (inactive). The GI50 (SNB-75) was > 100 µM (inactive), the GI50 (NCI-H23) was > 100 µM (inactive) and the GI50 (Malme-3M) was > 100 µM (inactive). For the same molecule, the GI50 (Hs-578T) was > 100 µM (inactive), the GI50 (LOX IMVI) was > 100 µM (inactive) and the GI50 (MDA-MB-231) was > 10 µM (inactive). For the same molecule, the GI50 (ACHN) was > 100 µM (inactive), the GI50 (UACC-62) was > 100 µM (inactive) and the GI50 (KM12) was > 100 µM (inactive). For the same molecule, the GI50 (RPMI-8226) was > 100 µM (inactive), the GI50 (SNB-19) was > 100 µM (inactive) and the GI50 (TK-10) was > 100 µM (inactive). For the same molecule, the GI50 (SN12C) was > 100 µM (inactive).
